Measurements reported in the supplement of paper PMC10307832.

Assays:
Test in all cases: relative viability (nuclei count vs DMSO), 5 days (fraction); higher = more cells survive
[1] = test system: HCC-827
How it was run: (§1)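 Lung cancer cell lines were seeded in 1536-well plates and dosed by pin tool the next day, with either a single drug or a fixed anchor-drug dose combined with five library-drug doses (not always all listed) spaced in √10 steps. Five days later, one step fixed the cells and stained their nuclei (final 0.05% Triton X-100, 1% formaldehyde, 1 ug/ml Hoechst), and nuclei were counted on 4× images. Relative viability is the nuclei count in treated wells divided by the count in vehicle wells, and each value is the median of duplicate plates.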

[2] = test system: COR-L23
How it was run: as §1

[3] = test system: HCC-15
How it was run: as §1

[4] = test system: HCC-44
How it was run: as §1

[5] = test system: NCI-H596
How it was run: as §1

[6] = test system: BEN
How it was run: as §1

[7] = test system: NCI-H1650
How it was run: as §1

[8] = test system: NCI-H1975
How it was run: as §1

[9] = test system: NCI-H23
How it was run: as §1

[10] = test system: NCI-H1666
How it was run: as §1

[11] = test system: A-427
How it was run: as §1

[12] = test system: NCI-H441
How it was run: as §1

[13] = test system: EKVX
How it was run: as §1

[14] = test system: NCI-H1437
How it was run: as §1

[15] = test system: HARA
How it was run: as §1

[16] = test system: SK-MES-1
How it was run: as §1

[17] = test system: NCI-H838
How it was run: as §1

[18] = test system: 201T
How it was run: as §1

[19] = test system: NCI-H1792
How it was run: as §1

O=c1cc(N2CCOCC2)oc2c(-c3cccc4c3sc3ccccc34)cccc12 + CC1(C)CCC(c2ccc(Cl)cc2)=C(CN2CCN(c3ccc(C(=O)NS(=O)(=O)c4ccc(N[C@H](CCN5CCOCC5)CSc5ccccc5)c(S(=O)(=O)C(F)(F)F)c4)cc3)CC2)C1 [Navitoclax] (partner 0.5 µM)
relative viability ([1]; first compound 0.01 µM): 1.02 | relative viability ([1]; first compound 0.03162 µM): 0.996 | relative viability ([1]; first compound 0.1 µM): 1.01 | relative viability ([1]; first compound 0.3162 µM): 1.07 | relative viability ([1]; first compound 1 µM): 1.02 | relative viability ([2]; first compound 0.01 µM): 1 | relative viability ([2]; first compound 0.03162 µM): 1.02 | relative viability ([2]; first compound 0.1 µM): 0.976 | relative viability ([2]; first compound 0.3162 µM): 1.05 | relative viability ([2]; first compound 1 µM): 0.98 | relative viability ([3]; first compound 0.01 µM): 0.788 | relative viability ([3]; first compound 0.03162 µM): 0.706 | relative viability ([3]; first compound 0.1 µM): 0.69 | relative viability ([3]; first compound 0.3162 µM): 0.691 | relative viability ([3]; first compound 1 µM): 0.667 | relative viability ([4]; first compound 0.01 µM): 0.854 | relative viability ([4]; first compound 0.03162 µM): 0.94 | relative viability ([4]; first compound 0.1 µM): 0.963 | relative viability ([4]; first compound 0.3162 µM): 0.887 | relative viability ([4]; first compound 1 µM): 0.931 | relative viability ([5]; first compound 0.01 µM): 0.928 | relative viability ([5]; first compound 0.03162 µM): 0.945 | relative viability ([5]; first compound 0.1 µM): 0.841 | relative viability ([5]; first compound 0.3162 µM): 0.967 | relative viability ([5]; first compound 1 µM): 1.17 | relative viability ([6]; first compound 0.01 µM): 0.155 | relative viability ([6]; first compound 0.03162 µM): 0.0681 | relative viability ([6]; first compound 0.1 µM): 0.0673 | relative viability ([6]; first compound 0.3162 µM): 0.0807 | relative viability ([6]; first compound 1 µM): 0.0563 | relative viability ([7]; first compound 0.03162 µM): 1.07 | relative viability ([7]; first compound 0.1 µM): 1.07 | relative viability ([7]; first compound 0.3162 µM): 1.47 | relative viability ([7]; first compound 1 µM): 1.07 | relative viability ([8]; first compound 0.01 µM): 1.02 | relative viability ([8]; first compound 0.03162 µM): 1.13 | relative viability ([8]; first compound 0.1 µM): 1.1 | relative viability ([8]; first compound 0.3162 µM): 0.985 | relative viability ([8]; first compound 1 µM): 0.994 | relative viability ([9]; first compound 0.01 µM): 0.981 | relative viability ([9]; first compound 0.03162 µM): 0.846 | relative viability ([9]; first compound 0.3162 µM): 0.832 | relative viability ([9]; first compound 1 µM): 0.777 | relative viability ([10]; first compound 0.01 µM): 0.941 | relative viability ([10]; first compound 0.03162 µM): 0.899 | relative viability ([10]; first compound 0.1 µM): 0.819 | relative viability ([10]; first compound 0.3162 µM): 0.798 | relative viability ([10]; first compound 1 µM): 0.895 | relative viability ([11]; first compound 0.01 µM): 0.937 | relative viability ([11]; first compound 0.03162 µM): 0.935 | relative viability ([11]; first compound 0.1 µM): 0.956 | relative viability ([11]; first compound 0.3162 µM): 0.866 | relative viability ([11]; first compound 1 µM): 0.959 | relative viability ([12]; first compound 0.01 µM): 0.53 | relative viability ([12]; first compound 0.03162 µM): 0.787 | relative viability ([12]; first compound 0.1 µM): 1.59 | relative viability ([12]; first compound 0.3162 µM): 0.738 | relative viability ([12]; first compound 1 µM): 0.585 | relative viability ([13]; first compound 0.01 µM): 1.02 | relative viability ([13]; first compound 0.03162 µM): 0.903 | relative viability ([13]; first compound 0.1 µM): 0.991 | relative viability ([13]; first compound 0.3162 µM): 0.956 | relative viability ([13]; first compound 1 µM): 0.871 | relative viability ([14]; first compound 0.01 µM): 1.05 | relative viability ([14]; first compound 0.03162 µM): 1.13 | relative viability ([14]; first compound 0.1 µM): 1.16 | relative viability ([14]; first compound 0.3162 µM): 1.05 | relative viability ([14]; first compound 1 µM): 1.05 | relative viability ([15]; first compound 0.01 µM): 1.11 | relative viability ([15]; first compound 0.03162 µM): 1.13 | relative viability ([15]; first compound 0.1 µM): 1.15 | relative viability ([15]; first compound 0.3162 µM): 1.17 | relative viability ([15]; first compound 1 µM): 1.14 | relative viability ([16]; first compound 0.01 µM): 1.28 | relative viability ([16]; first compound 0.03162 µM): 1.26 | relative viability ([16]; first compound 0.1 µM): 1.43 | relative viability ([16]; first compound 0.3162 µM): 1.26 | relative viability ([16]; first compound 1 µM): 1.13 | relative viability ([17]; first compound 0.01 µM): 1.17 | relative viability ([17]; first compound 0.03162 µM): 1.13 | relative viability ([17]; first compound 0.1 µM): 1.13 | relative viability ([17]; first compound 0.3162 µM): 1.1 | relative viability ([17]; first compound 1 µM): 1.1 | relative viability ([18]; first compound 0.01 µM): 1.2 | relative viability ([18]; first compound 0.03162 µM): 1.17 | relative viability ([18]; first compound 0.1 µM): 1.19 | relative viability ([18]; first compound 0.3162 µM): 1.19 | relative viability ([18]; first compound 1 µM): 1.18 | relative viability ([19]; first compound 0.01 µM): 0.604 | relative viability ([19]; first compound 0.03162 µM): 0.595 | relative viability ([19]; first compound 0.1 µM): 0.368 | relative viability ([19]; first compound 0.3162 µM): 0.564 | relative viability ([19]; first compound 1 µM): 0.556
